{
  "source": "patent US20080103170A1",
  "about": "“Nicotinic Acetylcholine Receptor Ligands” (AstraZeneca AB, priority 2004, published 2008)",
  "biological_target": "T1, α4 nAChR (Rattus norvegicus, UniProt P09483+P12390)",
  "T1 construct": "from tissue; host or cells: rat cortical brain membranes",
  "T1 sequence (P12390 25-500)": "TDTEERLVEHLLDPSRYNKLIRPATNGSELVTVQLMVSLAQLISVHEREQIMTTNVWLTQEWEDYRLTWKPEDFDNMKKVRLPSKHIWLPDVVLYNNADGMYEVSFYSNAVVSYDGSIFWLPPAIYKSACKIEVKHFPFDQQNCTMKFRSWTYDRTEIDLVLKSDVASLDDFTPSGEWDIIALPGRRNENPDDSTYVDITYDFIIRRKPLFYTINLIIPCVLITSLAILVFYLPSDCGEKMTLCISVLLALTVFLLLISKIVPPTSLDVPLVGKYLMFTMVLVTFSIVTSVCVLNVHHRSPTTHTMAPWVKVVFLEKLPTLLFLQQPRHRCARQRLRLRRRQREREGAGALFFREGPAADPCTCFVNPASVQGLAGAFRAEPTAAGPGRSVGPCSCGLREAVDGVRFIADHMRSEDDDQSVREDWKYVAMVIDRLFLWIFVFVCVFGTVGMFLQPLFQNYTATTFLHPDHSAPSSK",
  "T1 sequence (P09483 31-630)": "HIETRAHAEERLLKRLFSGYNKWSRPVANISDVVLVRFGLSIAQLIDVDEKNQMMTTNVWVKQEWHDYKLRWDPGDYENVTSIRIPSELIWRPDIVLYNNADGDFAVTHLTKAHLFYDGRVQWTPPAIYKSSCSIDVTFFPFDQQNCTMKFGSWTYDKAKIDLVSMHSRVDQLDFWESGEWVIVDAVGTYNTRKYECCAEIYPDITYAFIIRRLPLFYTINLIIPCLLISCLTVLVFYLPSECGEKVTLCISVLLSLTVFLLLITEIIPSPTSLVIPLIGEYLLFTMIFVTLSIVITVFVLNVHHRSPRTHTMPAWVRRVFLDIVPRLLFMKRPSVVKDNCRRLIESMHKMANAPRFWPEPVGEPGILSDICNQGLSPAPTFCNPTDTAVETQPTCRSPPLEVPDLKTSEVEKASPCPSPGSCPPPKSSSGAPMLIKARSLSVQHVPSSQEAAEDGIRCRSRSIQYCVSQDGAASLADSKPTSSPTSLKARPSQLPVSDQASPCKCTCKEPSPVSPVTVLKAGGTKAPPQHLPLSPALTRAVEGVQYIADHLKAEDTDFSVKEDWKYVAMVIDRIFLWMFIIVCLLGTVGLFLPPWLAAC",
  "test": "Affinity at α4 nAChR by [125I]-IPH binding to rat cortical membranes",
  "details": "saturation curves fitted to a one site model",
  "protocol": "Assay for Affinity at an α4 nAChR Receptor by Measuring the Binding of […] Binding to Rat Cortical Membranes\nA procedure modified from Martino-Barrows and Kellar (Mol Pharm (1987) 31:169-174) may be used. Rat cortical brain membranes are prepared as described in the [^125I]α-BTX binding assay, except that a 500-12000×g membrane fraction is prepared. Membranes (30-150 μg) are incubated with 30-100 pM of the epibatidine analog [^125I]-IPH ((+/−)-exo-2-(2-iodo-5-pyridyl)-7-azabicyclo-[2,2,1]heptane) together with test compound in HB for 1 hour at room temperature with gentle shaking. Membranes may be recovered as described for the [^125I]α-BTX binding assay. Non-specific binding may be determined by 100 μM carbachol. Typically specific binding is about 84%.\nAnalysis of Binding Data Obtained in α7 nAChR or α4 nAChR Receptor Assays\nIC50 values and pseudo Hill coefficients (nH) may be calculated using the non-linear curve fitting program ALLFIT (DeLean A, Munson P J and Rodbard D (1977) Am. J. Physiol., 235:E97-E102). […] Ki values may be estimated using the general Cheng-Prusoff equation:\nKi=[IC50]/((2+ligand/KD)^n)^1/n−1)\nwhere a value of n=1 is used whenever nH<1.5 and a value of n=2 is used when nH≧1.5. To account for variability, assays may be performed in triplicate and variability will typically be ±5%. Ki values may be determined using six to 11 drug concentrations.",
  "data": [
    {"smiles": "Ic1ccc(C2CC3CCC2N3)cn1", "note": "(racemic) [[^125I]-IPH, (+/−)-exo-2-(2-iodo-5-pyridyl)-7-azabicyclo-[2,2,1]heptane]", "values": [
      {"measurement": "Kd", "value": 0.064, "unit": "nM"}
    ]}
  ]
}
